Values quoted from earlier work, collected in patent US20020115211A1, “A METHOD FOR IN VITRO MATURATION OF HUMAN GAMETES” (MEDI-CULT A/S, priority 1998, published 2002).

Tested on: immature human gametes
Settings: presence in the culture medium; recent research

For “insulin: Component of the SSR media additives”, which “effect on the chance for successful pregnancy” value is on record?
Its value is “negative effect”.
